Test results as given in PMC2913396 (Molecular Systems Biology, 2010).
Entries after “also recorded” stand apart in the source; their conditions may differ.

What was measured:
[1] = system: Huh-7 cells; assay: host proliferation counterscreen measuring cellular ATP levels; assay type: cell-based, human; settings: 48 h
[2] = system: HCV genotype 1b subgenomic replicon in Huh-luc/neo-ET cells; assay: cHTS luciferase assay; assay type: cell-based, hepatitis C virus; settings: for effect on replicon replication (in words): single agent, 48 h luciferase
[3] = system: HMGCR; assay: HMGCR protein expression by western blot; assay type: cell-based, human; settings: Huh-7 cells, 16 h
[4] = system: HCV replicon RNA in Huh-luc/neo-ET cells; assay: replicon RNA copy number by quantitative RT-PCR; assay type: cell-based, hepatitis C virus; settings: 72 h, normalized to total RNA
[5] = ref Pyrah et al, 2001; Cenedella et al, 2004; cited from earlier work

Row | SMILES | effect on host cell ATP levels (in words) [1] | effect on replicon replication (in words) [2] | also measured
1 | NCCCC(O)(P(=O)(O)O)P(=O)(O)O [Alendronate] | reduce host cell ATP levels |  | 
2 | CCC(C)(C)c1ccc(CC(C)CN2C[C@@H](C)O[C@@H](C)C2)cc1 (stereo partly shown) [Amorolfine] |  | inhibited HCV replication with marginal impact on host cell ATP levels | 
3 | CCN(CC)CCOc1ccc(C(=C(Cl)c2ccccc2)c2ccccc2)cc1 [Clomiphene] | reduce host cell ATP levels |  | 
4 | CC(C)CCC[C@@H](C)[C@H]1CC(=O)C2=C3CC[C@H]4C[C@@H](O)CC[C@]4(C)[C@H]3CC[C@@]21C [Colestolone] |  | inhibited HCV replication with marginal impact on host cell ATP levels | 
5 | CC(C)=CCC/C(C)=C/CC/C(C)=C/CO [Farnesol] |  | strongly promoted replicon replication | 
6 | CC(Cc1ccc(C(C)(C)C)cc1)CN1C[C@@H](C)O[C@@H](C)C1 (stereo partly shown) [Fenpropimorph] |  | inhibited HCV replication with marginal impact on host cell ATP levels | 
7 | COC(=O)[C@H](CC(C)C)NC(=O)c1ccc(NC[C@@H](N)CS)cc1-c1ccccc1 [GGTI-286] |  | antiviral activity | 
8 | CCOP(=O)(OCC)C(=Cc1cc(C(C)(C)C)c(O)c(C(C)(C)C)c1)P(=O)(OCC)OCC [SR-12813] |  | strongly promoted replicon replication | 
9 | CCC(C)(C)C(=O)O[C@H]1C[C@@H](C)C=C2C=C[C@H](C)[C@H](CC[C@@H]3C[C@@H](O)CC(=O)O3)[C@H]21 [Simvastatin] | correlate with a reduction in host cell ATP levels | proviral effect; also recorded: increased HCV replication | HMGCR protein expression (in words) [3]: apparent overexpression of HMGCR; replicon RNA copy number, RT-qPCR (in words) [4]: proviral effects
10 | C=C(CC[C@]12O[C@H](C(=O)O)[C@@](O)(C(=O)O)[C@](C(=O)O)(O1)[C@H](OC(=O)/C=C/[C@@H](C)C[C@@H](C)CC)[C@H]2O)[C@@H](OC(C)=O)[C@H](C)Cc1ccccc1 [Squalestatin] |  | strongly promoted replicon replication | HMGCR protein expression (in words) [3]: overexpression of HMGCR; replicon RNA copy number, RT-qPCR (in words) [4]: proviral effects
11 | CCCCCCCCCCCCCCOc1ccc(C(=O)O)o1 [TOFA] | modest depletion of ATP at most antiviral concentrations |  | 
12 | CC(C)N1CCN(c2ccc(OCC3COC(Cn4cncn4)(c4ccc(Cl)cc4Cl)O3)cc2)CC1 (stereo not shown) [Terconazole] | reduce host cell ATP levels |  | 
13 | CCN(CC)CCO[C@H]1CC[C@@]2(C)C(=CC[C@@H]3[C@@H]2CC[C@]2(C)C(=O)CC[C@@H]32)C1.Cl [U18666A] |  | inhibited HCV replication with marginal impact on host cell ATP levels | IC50 of HCV replication inhibition (in words) ([2]; 48 h): nM range; HMGCR protein expression (in words) [3]: overexpression of HMGCR; side effects [5]: rapid induction of cataracts and irreversible lens damage in animals
14 | CC(C)n1c(/C=C/C(O)CC(O)CC(=O)O)c(-c2ccc(F)cc2)c2ccccc21 (stereo not shown) [fluvastatin] |  | proviral effect | 
